Test [1] addresses T1, Pancreatic triacylglycerol lipase (Sus scrofa, UniProt P00591).
T1 sequence (P00591 whole entry): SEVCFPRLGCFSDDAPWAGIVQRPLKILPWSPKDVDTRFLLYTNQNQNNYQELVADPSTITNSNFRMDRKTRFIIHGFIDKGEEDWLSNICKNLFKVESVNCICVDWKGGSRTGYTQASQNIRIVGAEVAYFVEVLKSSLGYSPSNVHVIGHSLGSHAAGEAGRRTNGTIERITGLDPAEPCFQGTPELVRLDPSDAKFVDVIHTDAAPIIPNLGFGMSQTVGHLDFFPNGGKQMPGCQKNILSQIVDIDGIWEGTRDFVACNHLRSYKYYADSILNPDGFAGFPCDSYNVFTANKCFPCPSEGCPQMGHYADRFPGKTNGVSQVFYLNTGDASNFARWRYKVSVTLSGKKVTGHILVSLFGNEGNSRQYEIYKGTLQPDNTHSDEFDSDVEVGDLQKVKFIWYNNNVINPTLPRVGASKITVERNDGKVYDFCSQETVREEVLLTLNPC
Briefly: Inhibition of porcine pancreatic lipase using micellar solution of triolein as substrate preincubated for 5 mins before substrate addition measured after 30 mins.

The target in test [2] is T2, Pancreatic triacylglycerol lipase (Sus scrofa) (UniProt P00591).
T2 sequence (whole entry): T1 sequence (P00591 whole entry)
Particulars: 0.4 uM.
Description: Inhibition of porcine pancreatic lipase using micellar solution of triolein as substrate at 0.4 uM preincubated for 5 mins before substrate addition measured after 30 mins

For test [3], the target named is T2, Pancreatic triacylglycerol lipase (Sus scrofa). Briefly: Inhibition of porcine pancreatic lipase using micellar solution of triolein as substrate at 1 mM preincubated for 5 mins before substrate addition measured after 30 mins.

In general, IC50 refers to the concentration needed to halve the response being measured. A low value points to greater potency in that assay. The term inhibition denotes the share of the control response that was lost under treatment. A higher inhibition goes with a response far below the control.

With `O=c1c(O[C@@H]2O[C@H](CO)[C@H](O)[C@H](O)[C@H]2O[C@@H]2OC[C@@H](O)[C@H](O)[C@H]2O)c(-c2ccc(O)c(O)c2)oc2cc(O)cc(O)c12`, the IC50 in test [1] is 300 µM.
On the same count and under the same terms, as for `O=C(/C=C/c1ccc(O)c(O)c1)O[C@@H](C(=O)O)[C@@H](O)COC(=O)c1cc(O)c(O)c(O)c1`, the figure is 246 µM; as for `O=C(/C=C/c1ccc(O)c(O)c1)O[C@@H](COC(=O)c1cc(O)c(O)c(O)c1)[C@@H](O)C(=O)O`, 26 µM.
`CCCCCCCCCCC[C@@H](C[C@@H]1OC(=O)[C@H]1CCCCCC)OC(=O)[C@H](CC(C)C)NC=O` came in with an inhibition in test [2] of 55%.
With `O=C(O)/C=C/c1ccc(O)c(O)c1` [CAFFEIC ACID], the IC50 in test [1] was over 1000 µM. Moreover, the inhibition in test [3] is 13%.
In turn, `O=C(O)c1cc(O)c(O)c(O)c1` [GALLIC ACID] showed an IC50 in test [1] of over 1000 µM. This compound came in with an inhibition in test [3] of 4%.
On the same counts, the results for `O=C(O)[C@H](O)[C@@H](O)CO` [L-THREONIC ACID] are over 1000 µM and 30%.
